# Reference: ChEMBL document CHEMBL4311992, “Discovery of 3-(((9H-purin-6-yl)amino)methyl)-4,6-dimethylpyridin-2(1H)-one derivatives as novel tubulin polymerization inhibitors for treatment of cancer” (Eur J Med Chem, 2019)
# The source made the active and inactive calls. The calls are words filed in the database; no cut-off is given here.
# What was measured:
# [1] = molecular target: Mitogen-activated protein kinase 1 (Homo sapiens) (UniProt P28482); assay: Inhibition of recombinant full-length human MAPK1 assessed as residual activity at 10 uM using myelin basic protein as substrate measured after 40 mins in presence of [gamma33P]ATP by scintillation counting method
# [2] = molecular target: Activin receptor type-2A (Homo sapiens) (UniProt P27037); assay: Inhibition of recombinant human ACTR2 (162 to end residues) assessed as residual activity at 10 uM using casein as substrate measured after 120 mins in presence of [gamma33P]ATP by scintillation counting method
# [3] = molecular target: Casein kinase II subunit alpha (Homo sapiens) (UniProt P68400); assay: Inhibition of recombinant full length human CK2alpha2 assessed as residual activity at 10 uM using RRRDDDSDDD as substrate measured after 40 mins in presence of [gamma33P]ATP by scintillation counting method
# [4] = molecular target: Serine/threonine-protein kinase pim-1 (Homo sapiens) (UniProt P11309); assay: Inhibition of recombinant full-length human Pim1 assessed as residual activity at 10 uM using KKRNRTLTV as substrate measured after 40 mins in presence of [gamma33P]ATP by scintillation counting method
# Homo sapiens = organism: Homo sapiens; assay: Inhibition of recombinant human ARAF Y301D/Y302D mutant (273 to end residues) assessed as residual activity at 10 uM using myelin basic protein as substrate measured after 40 mins in presence of [gamma33P]ATP by scintillation counting method
# [5] = molecular target: Tyrosine-protein kinase Srms (Homo sapiens) (UniProt Q9H3Y6); assay: Inhibition of human SRMS assessed as residual activity at 10 uM by radiometric method
# [6] = tested on: Proto-oncogene tyrosine-protein kinase receptor Ret (Homo sapiens), P07949 [V804L]; assay: Inhibition of human Ret V804L mutant (658 to end residues) using KKKSPGEYVNIEFG as substrate measured after 40 mins in presence of [gamma33P]ATP by scintillation counting method; set-up: scale not given: the % may be the effect or the level left
# [7] = molecular target: Mitogen-activated protein kinase kinase kinase 20 (Homo sapiens) (UniProt Q9NYL2); assay: Inhibition of recombinant full-length human ZAK assessed as residual activity at 10 uM using MBP as substrate measured after 40 mins in presence of [gamma33P]ATP by scintillation counting method
# [8] = molecular target: Serine/threonine-protein kinase BRSK1 (Homo sapiens) (UniProt Q8TDC3); assay: Inhibition of recombinant human BrSK1 (2 to end residues) assessed as residual activity at 10 uM using KKKVSRSGLYRSPSMPENLNRPR as substrate measured after 120 mins in presence of [gamma33P]ATP by scintillation counting method
# [9] = molecular target: NUAK family SNF1-like kinase 2 (Homo sapiens) (UniProt Q9H093); assay: Inhibition of recombinant full-length human NUAK2 assessed as residual activity at 10 uM using KKKVSRSGLYRSPSMPENLNRPR as substrate measured after 40 mins in presence of [gamma33P]ATP by scintillation counting method
# [10] = molecular target: Interferon-induced, double-stranded RNA-activated protein kinase (Homo sapiens) (UniProt P19525); assay: Inhibition of recombinant human PKR (252 to end residues) assessed as residual activity at 10 uM using RSRSRSRSRSRSRSR as substrate measured after 40 mins in presence of [gamma33P]ATP by scintillation counting method
# [11] = molecular target: Serine/threonine-protein kinase Chk2 (Homo sapiens) (UniProt O96017); assay: Inhibition of recombinant human CHK2 (5 to end residues) assessed as residual activity at 10 uM using KKKVSRSGLYRSPSMPENLNRPR as substrate measured after 40 mins in presence of [gamma33P]ATP by scintillation counting method
# Tubulin (Homo sapiens) = Tubulin (Homo sapiens) (UniProt P68371+Q9H4B7+P0DPH7+P68366+Q13509+Q71U36+P04350+Q3ZCM7+P07437+P68363+Q9BQE3+Q6PEY2+Q13885+Q9BVA1+Q9BUF5); assay: Disruption of microtubule network in human HCT116 cells assessed as microtubule condensation at 50 nM incubated for 18 hrs by FITC/DAPI staining-based confocal microscopic analysis; format: cell-based
# [12] = molecular target: Serine/threonine-protein kinase ICK (Homo sapiens) (UniProt Q9UPZ9); assay: Inhibition of recombinant human ICK (1 to 312 residues) assessed as residual activity at 10 uM using RRRFRPASPLRGPPK as substrate measured after 40 mins in presence of [gamma33P]ATP by scintillation counting method
# Mus musculus = organism: Mus musculus; assay: Inhibition of recombinant full-length mouse PI3K p110alpha/p85alpha E545K mutant assessed as residual activity at 10 uM using phosphatidylinositol-4, 5-bisphosphate as substrate measured after 40 mins by HTRF assay
# [13] = tested on: Hepatocyte growth factor receptor (Homo sapiens), P08581 [D1228H]; assay: Inhibition of recombinant human MET A1209G/V1290L/D1246H mutant (974 to end residues) assessed as residual activity at 10 uM using KKKGQEEEYVFIE as substrate measured after 40 mins in presence of [gamma33P]ATP by scintillation counting method
# [14] = molecular target: CDK2/Cyclin A2 (Homo sapiens) (UniProt P24941+P20248); assay: Inhibition of recombinant full-length human CDK2/cyclinA assessed as residual activity at 10 uM using histone H1 as substrate measured after 40 mins in presence of [gamma33P]ATP by scintillation counting method; format: protein-complex assay
# [15] = tested on: Serine/threonine-protein kinase Sgk2 (Homo sapiens), Q9HBY8 [S416D]; assay: Inhibition of recombinant human SGK2 S416D mutant (54 to end residues) assessed as residual activity at 10 uM using GRPRTSSFAEGKK as substrate measured after 40 mins in presence of [gamma33P]ATP by scintillation counting method
# [16] = molecular target: PI3K p110 delta/p85 alpha (Mus musculus) (UniProt P26450+O35904); assay: Inhibition of recombinant full-length mouse PI3K p110delta/p85alpha assessed as residual activity at 10 uM using phosphatidylinositol-4, 5-bisphosphate as substrate measured after 40 mins by HTRF assay; format: protein-complex assay
# [17] = molecular target: Tyrosine-protein kinase TXK (Homo sapiens) (UniProt P42681); assay: Inhibition of human Txk (256 to end residues) using GEEPLYWSFPAKKK as substrate measured after 40 mins in presence of [gamma33P]ATP by scintillation counting method; set-up: scale not given: the % may be the effect or the level left
# [18] = molecular target: Ribosomal protein S6 kinase alpha-1 (Homo sapiens) (UniProt Q15418); assay: Inhibition of recombinant full-length human Rsk1 assessed as residual activity at 10 uM using KKKNRTLSVA as substrate measured after 40 mins in presence of [gamma33P]ATP by scintillation counting method
# [19] = molecular target: Serine/threonine-protein kinase PLK2 (Homo sapiens) (UniProt Q9NYY3); assay: Inhibition of human Snk (65 to 409 residues) using casein as substrate measured after 40 mins in presence of [gamma33P]ATP by scintillation counting method; set-up: scale not given: the % may be the effect or the level left
# [20] = molecular target: Mitogen-activated protein kinase kinase kinase 11 (Homo sapiens) (UniProt Q16584); assay: Inhibition of human MLK3 assessed as residual activity at 10 uM by radiometric method
# Serine/threonine-protein kinase Sgk2 (Homo sapiens), Q9HBY8 [S416D], sequence (Q9HBY8 1-367 with tags or gaps S416D): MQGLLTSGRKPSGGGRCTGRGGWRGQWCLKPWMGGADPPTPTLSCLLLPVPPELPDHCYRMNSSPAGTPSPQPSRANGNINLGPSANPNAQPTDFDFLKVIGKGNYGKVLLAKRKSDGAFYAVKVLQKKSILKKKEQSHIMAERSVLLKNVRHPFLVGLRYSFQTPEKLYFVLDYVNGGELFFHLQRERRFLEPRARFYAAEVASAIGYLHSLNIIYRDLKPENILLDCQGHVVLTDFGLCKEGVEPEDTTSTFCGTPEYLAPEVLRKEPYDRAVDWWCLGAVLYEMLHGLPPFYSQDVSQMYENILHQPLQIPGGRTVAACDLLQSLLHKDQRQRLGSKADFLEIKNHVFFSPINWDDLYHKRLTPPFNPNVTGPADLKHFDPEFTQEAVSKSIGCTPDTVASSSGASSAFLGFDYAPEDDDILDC
# Tyrosine-protein kinase TXK (Homo sapiens), sequence (P42681 whole entry): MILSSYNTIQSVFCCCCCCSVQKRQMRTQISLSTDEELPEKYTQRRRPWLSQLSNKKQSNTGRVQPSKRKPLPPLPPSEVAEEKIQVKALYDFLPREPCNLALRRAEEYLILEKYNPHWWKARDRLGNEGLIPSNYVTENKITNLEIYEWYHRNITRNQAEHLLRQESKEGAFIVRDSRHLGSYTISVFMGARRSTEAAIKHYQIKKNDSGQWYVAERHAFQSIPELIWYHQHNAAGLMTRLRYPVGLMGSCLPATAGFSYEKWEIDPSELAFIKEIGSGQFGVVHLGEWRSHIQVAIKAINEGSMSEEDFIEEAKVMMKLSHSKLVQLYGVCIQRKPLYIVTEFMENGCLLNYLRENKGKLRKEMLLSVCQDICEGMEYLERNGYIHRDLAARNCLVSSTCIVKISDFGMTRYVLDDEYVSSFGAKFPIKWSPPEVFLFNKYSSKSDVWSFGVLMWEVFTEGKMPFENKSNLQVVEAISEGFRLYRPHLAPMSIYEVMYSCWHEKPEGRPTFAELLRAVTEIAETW
# Mitogen-activated protein kinase kinase kinase 20 (Homo sapiens), sequence (Q9NYL2 2-800 limits assumed): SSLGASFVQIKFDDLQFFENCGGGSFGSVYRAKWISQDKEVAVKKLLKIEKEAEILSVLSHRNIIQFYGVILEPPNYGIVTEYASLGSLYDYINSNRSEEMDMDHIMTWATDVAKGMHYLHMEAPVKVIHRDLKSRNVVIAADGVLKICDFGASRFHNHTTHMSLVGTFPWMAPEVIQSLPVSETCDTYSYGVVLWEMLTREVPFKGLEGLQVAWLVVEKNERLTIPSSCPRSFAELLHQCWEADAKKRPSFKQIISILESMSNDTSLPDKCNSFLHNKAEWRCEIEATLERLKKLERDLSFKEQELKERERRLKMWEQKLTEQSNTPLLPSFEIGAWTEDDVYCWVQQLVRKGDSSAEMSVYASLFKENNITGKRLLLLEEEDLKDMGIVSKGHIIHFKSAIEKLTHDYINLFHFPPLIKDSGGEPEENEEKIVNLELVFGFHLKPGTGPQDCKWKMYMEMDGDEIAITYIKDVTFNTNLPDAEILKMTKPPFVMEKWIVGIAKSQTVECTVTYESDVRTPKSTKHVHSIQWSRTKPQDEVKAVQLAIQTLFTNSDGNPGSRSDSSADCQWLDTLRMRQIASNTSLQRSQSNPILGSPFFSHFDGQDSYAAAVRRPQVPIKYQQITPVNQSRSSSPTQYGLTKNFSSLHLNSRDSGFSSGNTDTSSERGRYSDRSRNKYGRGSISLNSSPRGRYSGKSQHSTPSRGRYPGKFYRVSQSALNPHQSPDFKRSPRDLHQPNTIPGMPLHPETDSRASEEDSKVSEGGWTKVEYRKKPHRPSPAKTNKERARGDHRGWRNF
# Mitogen-activated protein kinase 1 (Homo sapiens), sequence (P28482 whole entry): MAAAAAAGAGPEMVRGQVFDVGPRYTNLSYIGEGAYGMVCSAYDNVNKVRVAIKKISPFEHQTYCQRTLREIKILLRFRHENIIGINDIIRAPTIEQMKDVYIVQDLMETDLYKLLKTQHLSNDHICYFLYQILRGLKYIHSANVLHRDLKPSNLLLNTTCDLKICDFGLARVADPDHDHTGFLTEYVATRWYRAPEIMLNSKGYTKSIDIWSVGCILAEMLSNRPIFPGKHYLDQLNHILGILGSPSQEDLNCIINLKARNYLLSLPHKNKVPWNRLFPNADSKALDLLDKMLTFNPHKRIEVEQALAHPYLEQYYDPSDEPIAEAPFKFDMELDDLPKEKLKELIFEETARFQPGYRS
# Serine/threonine-protein kinase PLK2 (Homo sapiens), sequence (Q9NYY3 whole entry, looked up, the tested form may be a part): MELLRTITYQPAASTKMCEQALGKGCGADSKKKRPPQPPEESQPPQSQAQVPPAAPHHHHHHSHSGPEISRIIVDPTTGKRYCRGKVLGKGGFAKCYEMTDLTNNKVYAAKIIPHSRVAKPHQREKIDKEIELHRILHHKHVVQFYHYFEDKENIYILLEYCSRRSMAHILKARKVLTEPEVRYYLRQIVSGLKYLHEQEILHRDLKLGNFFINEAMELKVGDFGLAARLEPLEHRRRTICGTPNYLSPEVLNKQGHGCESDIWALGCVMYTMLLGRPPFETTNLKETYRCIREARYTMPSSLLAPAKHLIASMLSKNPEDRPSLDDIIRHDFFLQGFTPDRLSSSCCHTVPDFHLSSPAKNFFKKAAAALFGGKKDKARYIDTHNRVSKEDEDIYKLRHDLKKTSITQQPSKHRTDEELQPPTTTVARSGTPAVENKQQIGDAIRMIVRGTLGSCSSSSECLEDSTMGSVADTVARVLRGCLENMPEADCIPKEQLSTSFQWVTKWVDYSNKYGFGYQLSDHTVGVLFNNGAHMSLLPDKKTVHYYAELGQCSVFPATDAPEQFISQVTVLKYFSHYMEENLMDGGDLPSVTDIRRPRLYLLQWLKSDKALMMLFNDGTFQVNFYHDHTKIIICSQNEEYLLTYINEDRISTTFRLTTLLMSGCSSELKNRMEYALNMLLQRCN
# Serine/threonine-protein kinase Chk2 (Homo sapiens), sequence (O96017 whole entry): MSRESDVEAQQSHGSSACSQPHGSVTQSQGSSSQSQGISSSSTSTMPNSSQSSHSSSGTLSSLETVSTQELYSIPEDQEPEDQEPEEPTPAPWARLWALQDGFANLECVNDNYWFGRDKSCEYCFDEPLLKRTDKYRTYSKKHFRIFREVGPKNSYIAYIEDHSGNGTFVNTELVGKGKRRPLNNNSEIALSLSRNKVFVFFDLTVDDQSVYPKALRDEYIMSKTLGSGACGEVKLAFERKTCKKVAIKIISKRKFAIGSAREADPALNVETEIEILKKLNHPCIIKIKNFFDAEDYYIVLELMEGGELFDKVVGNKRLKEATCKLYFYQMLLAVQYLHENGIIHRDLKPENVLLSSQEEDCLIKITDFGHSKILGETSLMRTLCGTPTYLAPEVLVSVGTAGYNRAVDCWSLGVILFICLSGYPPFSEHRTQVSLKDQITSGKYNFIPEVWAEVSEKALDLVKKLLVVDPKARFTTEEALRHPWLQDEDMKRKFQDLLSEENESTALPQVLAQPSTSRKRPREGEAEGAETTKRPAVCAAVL
# Ribosomal protein S6 kinase alpha-1 (Homo sapiens), sequence (Q15418 whole entry, the tested form may be a part): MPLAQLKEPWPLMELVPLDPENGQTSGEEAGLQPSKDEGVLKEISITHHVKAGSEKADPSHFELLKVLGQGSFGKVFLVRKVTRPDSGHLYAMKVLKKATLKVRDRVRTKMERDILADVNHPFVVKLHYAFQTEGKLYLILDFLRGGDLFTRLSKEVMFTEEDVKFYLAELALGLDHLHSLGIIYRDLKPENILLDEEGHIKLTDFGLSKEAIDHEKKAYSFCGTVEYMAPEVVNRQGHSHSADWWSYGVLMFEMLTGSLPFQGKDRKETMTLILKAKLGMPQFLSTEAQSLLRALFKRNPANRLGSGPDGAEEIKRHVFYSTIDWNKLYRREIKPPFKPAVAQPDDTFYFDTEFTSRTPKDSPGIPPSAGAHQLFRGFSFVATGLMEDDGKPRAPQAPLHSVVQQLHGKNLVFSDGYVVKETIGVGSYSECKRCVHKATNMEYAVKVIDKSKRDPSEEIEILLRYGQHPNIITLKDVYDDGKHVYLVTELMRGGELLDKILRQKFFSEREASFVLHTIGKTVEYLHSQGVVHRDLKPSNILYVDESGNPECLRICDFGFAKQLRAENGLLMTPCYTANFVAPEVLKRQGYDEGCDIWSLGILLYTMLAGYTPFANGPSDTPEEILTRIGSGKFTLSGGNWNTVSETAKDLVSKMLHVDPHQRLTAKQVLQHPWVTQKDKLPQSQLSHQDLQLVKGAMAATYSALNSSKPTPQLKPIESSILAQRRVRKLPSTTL
# Casein kinase II subunit alpha (Homo sapiens), sequence (P68400 whole entry, looked up): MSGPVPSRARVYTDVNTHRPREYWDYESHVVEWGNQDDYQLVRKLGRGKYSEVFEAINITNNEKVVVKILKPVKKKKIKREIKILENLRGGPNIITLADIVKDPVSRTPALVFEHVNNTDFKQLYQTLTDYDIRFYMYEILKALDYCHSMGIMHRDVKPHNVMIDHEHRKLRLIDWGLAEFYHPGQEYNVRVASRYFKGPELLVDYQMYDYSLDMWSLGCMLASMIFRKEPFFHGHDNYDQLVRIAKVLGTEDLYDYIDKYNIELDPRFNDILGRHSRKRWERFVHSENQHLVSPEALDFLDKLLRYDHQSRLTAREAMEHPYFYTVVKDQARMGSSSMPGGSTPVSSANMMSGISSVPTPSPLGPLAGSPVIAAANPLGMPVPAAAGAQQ
# Serine/threonine-protein kinase pim-1 (Homo sapiens), sequence (P11309 whole entry, looked up): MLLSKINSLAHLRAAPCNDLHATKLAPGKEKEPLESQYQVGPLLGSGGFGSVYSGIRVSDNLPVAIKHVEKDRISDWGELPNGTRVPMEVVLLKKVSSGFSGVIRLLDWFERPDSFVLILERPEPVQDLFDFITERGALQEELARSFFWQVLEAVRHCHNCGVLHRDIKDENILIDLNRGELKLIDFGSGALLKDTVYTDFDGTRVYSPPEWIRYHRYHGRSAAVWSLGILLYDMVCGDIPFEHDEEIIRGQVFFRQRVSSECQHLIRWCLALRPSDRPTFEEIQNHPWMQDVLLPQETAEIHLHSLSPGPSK
compound,measurement,setting,value
Cc1cc(C)c(CNc2nc(Cl)nc3c2ncn3C2CCCC2)c(=O)[nH]1,Activity,[1],97.5%
same,Activity,[2],104%
same,Activity,[3],89.5%
same,Activity,[4],106%
same,Activity,Homo sapiens,122%
same,Activity,[5],108%
same,Activity,[6],106%
same,Activity,[7],97%
same,Activity,[8],140%
same,Activity,[9],114%
same,Activity,[10],109%
same,Activity,[11],105%
same,Activity,Tubulin (Homo sapiens),Active
same,Activity,[12],114%
same,Activity,Mus musculus,99%
same,Activity,[13],108%
same,Activity,[14],110%
same,Activity,[15],112%
same,Activity,[16],100%
same,Activity,[17],84%
same,Activity,[18],112%
same,Activity,[19],106%
same,Activity,[20],104%
